{"source": "paper PMC5218480", "about": "(PLoS ONE, 2017)", "system": "MV-4-11 cells", "test": "Gene expression microarray analysis (Affymetrix PrimeView) and GSEA", "type": "cell-based, human", "design": "RFU PODN (11730768_x_at) / Fold change /veh PODN (11730768_x_at) / RFU LINC00158 (11744669_a_at) / Fold change /veh LINC00158 (11744669_a_at) / RFU DUSP10 (11751237_a_at) / Fold change /veh DUSP10 (11751237_a_at) / RFU ID3 (11757404_x_at) / Fold change /veh ID3 (11757404_x_at) / RFU PLEKHG5 (11737974_s_at) / Fold change /veh PLEKHG5 (11737974_s_at) / RFU LRRC4B (11730491_at) / Fold change /veh LRRC4B (11730491_at) / RFU GIMAP4 (11747438_a_at) / Fold change /veh GIMAP4 (11747438_a_at) / RFU KRT8 (11758183_x_at) / Fold change /veh KRT8 (11758183_x_at) / RFU CNN1 (11734310_a_at) / Fold change /veh CNN1 (11734310_a_at) / RFU VPS37D (11726825_at) / Fold change /veh VPS37D (11726825_at) / RFU C10orf10 (11716522_x_at) / Fold change /veh C10orf10 (11716522_x_at) / RFU KIR2DL2 /// KIR2DL4 /// KIR2DL5A /// KIR2DL5B /// KIR2DS1 /// KIR2DS2 /// KIR2DS3 /// KIR2DS4 /// KIR3DL3 /// KIR3DL3 /// KIR3DS1 (11738374_at) / Fold change /veh KIR2DL2 /// KIR2DL4 /// KIR2DL5A /// KIR2DL5B /// KIR2DS1 /// KIR2DS2 /// KIR2DS3 /// KIR2DS4 /// KIR3DL3 /// KIR3DL3 /// KIR3DS1 (11738374_at) / RFU C1QL1 (11718748_at) / Fold change /veh C1QL1 (11718748_at) / RFU TMPRSS4 (11747572_a_at) / Fold change /veh TMPRSS4 (11747572_a_at) / RFU HAMP (11756126_x_at) / Fold change /veh HAMP (11756126_x_at) / RFU RNFT2 (11725882_a_at) / Fold change /veh RNFT2 (11725882_a_at) / RFU NR4A2 (11747474_a_at) / Fold change /veh NR4A2 (11747474_a_at) / RFU ABCC12 (11746883_a_at) / Fold change /veh ABCC12 (11746883_a_at) / RFU TMEM136 (11760407_x_at) / Fold change /veh TMEM136 (11760407_x_at) / RFU CLDN22 /// WWC2 (11732394_at) / Fold change /veh CLDN22 /// WWC2 (11732394_at) / RFU HLA-DPB1 (11760878_x_at) / Fold change /veh HLA-DPB1 (11760878_x_at) / RFU SPINT1 (11716480_a_at) / Fold change /veh SPINT1 (11716480_a_at) / RFU GAP43 (11754022_s_at) / Fold change /veh GAP43 (11754022_s_at) / RFU A4GNT (11735810_at) / Fold change /veh A4GNT (11735810_at) / RFU PRB3 (11715151_x_at) / Fold change /veh PRB3 (11715151_x_at) / RFU TUBB4B (11761932_at) / Fold change /veh TUBB4B (11761932_at) / RFU CAPN14 (11732068_a_at) / Fold change /veh CAPN14 (11732068_a_at) / RFU TMCC2 (11721928_a_at) / Fold change /veh TMCC2 (11721928_a_at) / RFU IRGQ (11745062_a_at) / Fold change /veh IRGQ (11745062_a_at) / RFU FAM174B (11720279_a_at) / Fold change /veh FAM174B (11720279_a_at) / RFU TMPRSS4 (11748680_a_at) / Fold change /veh TMPRSS4 (11748680_a_at) / RFU FAM212B (11763350_a_at) / Fold change /veh FAM212B (11763350_a_at) / RFU PLEKHG5 (11743358_a_at) / Fold change /veh PLEKHG5 (11743358_a_at) / RFU ZSCAN30 (11745921_a_at) / Fold change /veh ZSCAN30 (11745921_a_at) / RFU CMKLR1 (11741424_a_at) / Fold change /veh CMKLR1 (11741424_a_at) / RFU LOC101060620 /// MAPK8IP1 (11723275_at) / Fold change /veh LOC101060620 /// MAPK8IP1 (11723275_at) / RFU SPTSSB (11747773_x_at) / Fold change /veh SPTSSB (11747773_x_at) / RFU PRSS12 (11739890_at) / Fold change /veh PRSS12 (11739890_at) / RFU BIN1 (11741810_x_at) / Fold change /veh BIN1 (11741810_x_at) / RFU WNT11 (11732464_a_at) / Fold change /veh WNT11 (11732464_a_at) / RFU C10orf10 (11716521_a_at) / Fold change /veh C10orf10 (11716521_a_at) / RFU C5orf56 (11738089_at) / Fold change /veh C5orf56 (11738089_at) / RFU CYB561 (11721691_x_at) / Fold change /veh CYB561 (11721691_x_at) / RFU ANKRD19P (11752326_a_at) / Fold change /veh ANKRD19P (11752326_a_at) / RFU OR2T12 /// OR2T33 /// OR2T8 (11738714_s_at) / Fold change /veh OR2T12 /// OR2T33 /// OR2T8 (11738714_s_at) / RFU VCAN (11748164_a_at) / Fold change /veh VCAN (11748164_a_at) / RFU JSRP1 (11732532_at) / Fold change /veh JSRP1 (11732532_at) / RFU KRTAP10-11 (11738290_x_at) / Fold change /veh KRTAP10-11 (11738290_x_at) / RFU MYO3A (11730013_a_at) / Fold change /veh MYO3A (11730013_a_at) / RFU EBF3 (11725865_a_at) / Fold change /veh EBF3 (11725865_a_at) / RFU CAMK2N1 (11719241_x_at) / Fold change /veh CAMK2N1 (11719241_x_at) / RFU C5orf56 (11738088_a_at) / Fold change /veh C5orf56 (11738088_a_at) / RFU OLFML3 (11715873_a_at) / Fold change /veh OLFML3 (11715873_a_at) / RFU LOC100653217 /// NTM (11731650_a_at) / Fold change /veh LOC100653217 /// NTM (11731650_a_at) / RFU MAPK11 (11762145_a_at) / Fold change /veh MAPK11 (11762145_a_at) / RFU FIZ1 (11724087_x_at) / Fold change /veh FIZ1 (11724087_x_at) / RFU OASL (11726364_x_at) / Fold change /veh OASL (11726364_x_at) / RFU SOX15 (11748057_x_at) / Fold change /veh SOX15 (11748057_x_at) / RFU CD79A (11719716_a_at) / Fold change /veh CD79A (11719716_a_at) / RFU HIST1H1D (11736915_at) / Fold change /veh HIST1H1D (11736915_at) / RFU CASKIN2 (11723855_a_at) / Fold change /veh CASKIN2 (11723855_a_at) / RFU LOC730098 (11760151_x_at) / Fold change /veh LOC730098 (11760151_x_at) / RFU OR4N2 (11742367_at) / Fold change /veh OR4N2 (11742367_at) / RFU PRRT2 (11749266_a_at) / Fold change /veh PRRT2 (11749266_a_at) / RFU SNX32 (11753110_a_at) / Fold change /veh SNX32 (11753110_a_at) / RFU CDHR5 (11726645_a_at) / Fold change /veh CDHR5 (11726645_a_at) / RFU RCAN1 (11760418_a_at) / Fold change /veh RCAN1 (11760418_a_at) / RFU FAM167A (11723789_a_at) / Fold change /veh FAM167A (11723789_a_at) / RFU FAM26E (11764081_at) / Fold change /veh FAM26E (11764081_at) / RFU ISYNA1 (11749810_s_at) / Fold change /veh ISYNA1 (11749810_s_at) / RFU ACY1 (11761880_at) / Fold change /veh ACY1 (11761880_at) / RFU 11764098_at / Fold change /veh 11764098_at / RFU SAMD14 (11745864_x_at) / Fold change /veh SAMD14 (11745864_x_at) / RFU NPB (11741838_a_at) / Fold change /veh NPB (11741838_a_at) / RFU TMPRSS6 (11731388_a_at) / Fold change /veh TMPRSS6 (11731388_a_at) / RFU KRTAP10-2 (11738614_at) / Fold change /veh KRTAP10-2 (11738614_at) / RFU ARHGAP8 /// PRR5-ARHGAP8 (11727945_x_at) / Fold change /veh ARHGAP8 /// PRR5-ARHGAP8 (11727945_x_at) / RFU KRTAP5-7 /// NADSYN1 (11734609_at) / Fold change /veh KRTAP5-7 /// NADSYN1 (11734609_at) / RFU RASL12 (11751679_a_at) / Fold change /veh RASL12 (11751679_a_at) / RFU CDKN2B (11736163_a_at) / Fold change /veh CDKN2B (11736163_a_at) / RFU PRF1 (11729649_at) / Fold change /veh PRF1 (11729649_at) / RFU, ZNF638 /// ZNF638-IT1 / Fold change vs veh, ZNF638 /// ZNF638-IT1 / RFU, PANK3 / Fold change vs veh, PANK3 / RFU, SH3YL1 / Fold change vs veh, SH3YL1 / RFU, ZEB2 / Fold change vs veh, ZEB2 / RFU, NRIP1 / Fold change vs veh, NRIP1 / RFU, PTTG1IP / Fold change vs veh, PTTG1IP / RFU, CAPN2 / Fold change vs veh, CAPN2 / RFU, MED14 / Fold change vs veh, MED14 / RFU, SNORA58 / Fold change vs veh, SNORA58 / RFU, C1orf63 / Fold change vs veh, C1orf63 / RFU, LRRFIP1 / Fold change vs veh, LRRFIP1 / RFU, NDUFAF7 / Fold change vs veh, NDUFAF7 / RFU, SLC12A2 / Fold change vs veh, SLC12A2 / RFU, IBTK / Fold change vs veh, IBTK / RFU, ESF1 / Fold change vs veh, ESF1 / Fold change vs veh, TMEM50B / RFU, TAOK1 / Fold change vs veh, TAOK1 / RFU, ACBD3 / Fold change vs veh, ACBD3 / RFU, TMA16 / Fold change vs veh, TMA16 / RFU, RWDD3 / Fold change vs veh, RWDD3 / RFU, BCAT1 / Fold change vs veh, BCAT1 / RFU, EDEM3 / Fold change vs veh, EDEM3 / RFU, TMEM33 / Fold change vs veh, TMEM33 / RFU, WDR75 / Fold change vs veh, WDR75 / RFU, AHCTF1 / Fold change vs veh, AHCTF1 / RFU, TFRC / Fold change vs veh, TFRC / RFU, ZDHHC17 / Fold change vs veh, ZDHHC17 / RFU, NOM1 / Fold change vs veh, NOM1 / RFU, ARL8B / Fold change vs veh, ARL8B / RFU, ZBTB11 / Fold change vs veh, ZBTB11 / RFU, TAMM41 / Fold change vs veh, TAMM41 / RFU, KIAA1704 /// LOC100996395 / Fold change vs veh, KIAA1704 /// LOC100996395 / RFU, ING1 / Fold change vs veh, ING1 / RFU, TRMT61B / Fold change vs veh, TRMT61B / RFU, FUBP3 / Fold change vs veh, FUBP3 / RFU, TP53 / Fold change vs veh, TP53 / RFU, TNKS2 / Fold change vs veh, TNKS2 / RFU, ZFP14 / Fold change vs veh, ZFP14 / RFU, ACTR2 / Fold change vs veh, ACTR2 / RFU, PPP3R1 / Fold change vs veh, PPP3R1 / RFU, PIK3R1 / Fold change vs veh, PIK3R1 / RFU, HNRNPA1 / Fold change vs veh, HNRNPA1 / RFU, RNF170 / Fold change vs veh, RNF170 / RFU, ZNF28 / Fold change vs veh, ZNF28 / RFU, RNGTT / Fold change vs veh, RNGTT / RFU, OGT / Fold change vs veh, OGT / RFU, BRD1 / Fold change vs veh, BRD1 / RFU, MARS / Fold change vs veh, MARS / RFU, ZNF655 / Fold change vs veh, ZNF655 / RFU, FAHD1 / Fold change vs veh, FAHD1 / RFU, BDP1 / Fold change vs veh, BDP1 / RFU, LRRCC1 / Fold change vs veh, LRRCC1 / RFU, ARID1A / Fold change vs veh, ARID1A / RFU, ZNF146 / Fold change vs veh, ZNF146 / RFU, ZNF330 / Fold change vs veh, ZNF330 / RFU, GPN3 / Fold change vs veh, GPN3 / RFU, C9orf123 / Fold change vs veh, C9orf123 / RFU, N4BP2L2 / Fold change vs veh, N4BP2L2 / RFU, ARFIP1 / Fold change vs veh, ARFIP1 / RFU, FAM179B / Fold change vs veh, FAM179B / RFU, BCL10 / Fold change vs veh, BCL10 / RFU, UHRF1BP1L / Fold change vs veh, UHRF1BP1L / RFU, BET1 / Fold change vs veh, BET1 / RFU, CNOT2 / Fold change vs veh, CNOT2 / RFU, ZNF268 / Fold change vs veh, ZNF268 / Fold change vs veh, ZNF507 / RFU, DGCR2 / Fold change vs veh, DGCR2 / RFU, WDSUB1 / Fold change vs veh, WDSUB1 / Fold change vs veh, HSP90B1 /// MIR3652 / RFU, ADSS / Fold change vs veh, ADSS / RFU, GK / Fold change vs veh, GK / RFU, ZNF148 / Fold change vs veh, ZNF148 / RFU, TAF9 / Fold change vs veh, TAF9 / RFU, SLC1A5 / Fold change vs veh, SLC1A5 / RFU, SLMO2 / Fold change vs veh, SLMO2 / RFU, ABCC4 / Fold change vs veh, ABCC4 / RFU, LOC101060439 /// RAP1B / Fold change vs veh, LOC101060439 /// RAP1B / RFU, RFX7 / Fold change vs veh, RFX7 / RFU, GTPBP10 / Fold change vs veh, GTPBP10 / RFU, CNEP1R1 / Fold change vs veh, CNEP1R1 / RFU, BIVM-ERCC5 /// ERCC5 / Fold change vs veh, BIVM-ERCC5 /// ERCC5 / RFU, ILF3 / Fold change vs veh, ILF3 / RFU 11762660_at / Fold change /veh 11762660_at / RFU VCAN (11757783_s_at) / Fold change /veh VCAN (11757783_s_at) / RFU DDX43 (11728927_at) / Fold change /veh DDX43 (11728927_at) / RFU KRT8 (11758188_x_at) / Fold change /veh KRT8 (11758188_x_at) / RFU NKD1 (11759106_at) / Fold change /veh NKD1 (11759106_at) / RFU SRD5A1 (11742802_a_at) / Fold change /veh SRD5A1 (11742802_a_at) / RFU TPSAB1 /// TPSB2 (11721975_s_at) / Fold change /veh TPSAB1 /// TPSB2 (11721975_s_at) / RFU GSTM3 (11746129_a_at) / Fold change /veh GSTM3 (11746129_a_at) / RFU IL23R (11737362_x_at) / Fold change /veh IL23R (11737362_x_at) / RFU TMEM51 (11727254_a_at) / Fold change /veh TMEM51 (11727254_a_at) / RFU PIWIL2 (11732686_x_at) / Fold change /veh PIWIL2 (11732686_x_at) / RFU ORM1 (11744905_x_at) / Fold change /veh ORM1 (11744905_x_at) / RFU CCDC152 (11743942_at) / Fold change /veh CCDC152 (11743942_at) / RFU ECM1 (11717891_a_at) / Fold change /veh ECM1 (11717891_a_at) / RFU IL23R (11748794_a_at) / Fold change /veh IL23R (11748794_a_at) / RFU TNFAIP8L3 (11732012_x_at) / Fold change /veh TNFAIP8L3 (11732012_x_at) / RFU MBOAT4 (11741988_at) / Fold change /veh MBOAT4 (11741988_at) / RFU 11764193_at / Fold change /veh 11764193_at / RFU TMEM53 (11763286_at) / Fold change /veh TMEM53 (11763286_at) / RFU MAGEB2 (11727129_at) / Fold change /veh MAGEB2 (11727129_at) / RFU TMEM200A (11744735_a_at) / Fold change /veh TMEM200A (11744735_a_at) / RFU CCDC152 (11751479_a_at) / Fold change /veh CCDC152 (11751479_a_at) / RFU FAM211A (11726209_a_at) / Fold change /veh FAM211A (11726209_a_at) / RFU RGS16 (11746705_a_at) / Fold change /veh RGS16 (11746705_a_at) / RFU VCAN (11755009_s_at) / Fold change /veh VCAN (11755009_s_at) / RFU RHOB (11743442_s_at) / Fold change /veh RHOB (11743442_s_at) / RFU RGS16 (11720943_a_at) / Fold change /veh RGS16 (11720943_a_at) / RFU RGS16 (11720944_at) / Fold change /veh RGS16 (11720944_at) / RFU, VPS4B / Fold change vs veh, VPS4B / RFU, CREB1 / Fold change vs veh, CREB1 / RFU, DNAJC13 / Fold change vs veh, DNAJC13 / RFU, GNAQ / Fold change vs veh, GNAQ / RFU, CDK5R1 / Fold change vs veh, CDK5R1 / RFU, ZRANB3 / Fold change vs veh, ZRANB3 / RFU, CUL4A / Fold change vs veh, CUL4A / RFU, CCNY / Fold change vs veh, CCNY / RFU, UFL1 / Fold change vs veh, UFL1 / RFU, COG3 / Fold change vs veh, COG3 / RFU, DIAPH2 / Fold change vs veh, DIAPH2 / RFU, SKA2 / Fold change vs veh, SKA2 / RFU, AFF3 / Fold change vs veh, AFF3 / RFU, LMF1 / Fold change vs veh, LMF1 / RFU, IPO11 / Fold change vs veh, IPO11 / RFU, DFFB / Fold change vs veh, DFFB / RFU, FOXP1 / Fold change vs veh, FOXP1 / RFU, CARD8 / Fold change vs veh, CARD8 / RFU, STRN3 / Fold change vs veh, STRN3 / RFU, ADK / Fold change vs veh, ADK / RFU, RASSF2 / Fold change vs veh, RASSF2 / RFU, WIPF1 / Fold change vs veh, WIPF1 / RFU, LARP1B / Fold change vs veh, LARP1B / RFU, RASA1 / Fold change vs veh, RASA1 / RFU, RB1 / Fold change vs veh, RB1 / RFU, PPFIA1 / Fold change vs veh, PPFIA1 / RFU, MAT2A / Fold change vs veh, MAT2A / RFU, CCT5 / Fold change vs veh, CCT5 / RFU, WDR92 / Fold change vs veh, WDR92 / RFU, CUX1 / Fold change vs veh, CUX1 / RFU, TTC7A / Fold change vs veh, TTC7A / RFU, TMEM135 / Fold change vs veh, TMEM135 / RFU, DEPTOR / Fold change vs veh, DEPTOR / RFU, CPM / Fold change vs veh, CPM / RFU, DNAJB6 / Fold change vs veh, DNAJB6 / RFU, CACNA2D3 / Fold change vs veh, CACNA2D3 / RFU, DTX4 / Fold change vs veh, DTX4 / RFU, TFCP2 / Fold change vs veh, TFCP2 / RFU, GMCL1 /// GMCL1P1 / Fold change vs veh, GMCL1 /// GMCL1P1 / RFU, AEBP2 / Fold change vs veh, AEBP2 / RFU, SNHG1 /// SNORD22 /// SNORD25 /// SNORD26 /// SNORD27 /// SNORD28 /// SNORD29 /// SNORD31 / Fold change vs veh, SNHG1 /// SNORD22 /// SNORD25 /// SNORD26 /// SNORD27 /// SNORD28 /// SNORD29 /// SNORD31 / Fold change (Aza/veh), C12orf56 (ProbeSet 11735607_a_at) / Fold change (ACY-1035/veh), C12orf56 (ProbeSet 11735607_a_at) / Fold change (Aza/veh), FGFR1OP (ProbeSet 11751329_s_at) / Fold change (ACY-1035/veh), FGFR1OP (ProbeSet 11751329_s_at) / Fold change (Aza/veh), VPS36 (ProbeSet 11739960_a_at) / Fold change (ACY-1035/veh), VPS36 (ProbeSet 11739960_a_at) / RFU SYPL1 (11715823_x_at) / Fold change /veh SYPL1 (11715823_x_at) / RFU IGFBP7 (11715501_s_at) / Fold change /veh IGFBP7 (11715501_s_at) / RFU REEP3 (11722064_at) / Fold change /veh REEP3 (11722064_at) / RFU IGLL1 (11728026_x_at) / Fold change /veh IGLL1 (11728026_x_at): dose or concentration left out as unconfirmed", "settings": "ProbeSet 11747937_a_at; LIST D"}
{"smiles": "Nc1ccc(-c2cccs2)cc1NC(=O)c1ccc2c(c1)cc(C1CC1)n2CCN1CCOCC1", "note": "[ACY-1035]", "values": [{"measurement": "Fold change vs veh, DNAJB6", "result": 0.86}]}
